Assay results: US10722520B2, “Heterocyclic compounds and their use in preventing or treating bacterial infections” (MUTABILIS, priority 2016, dated 2020)

How the values were obtained:
[1] = biological target: TEM-1 (Escherichia coli, UniProt P62593); conditions: read-out: IC50 β-lactamase TEM-1; class (A); nitrocefin 200 μM, 30-min pre-incubation, enzyme 0.1 nM
[2] = biological target: KPC-2 (Klebsiella pneumoniae, UniProt Q9F663); conditions: read-out: IC50 β-lactamase KPC-2; class (A); nitrocefin 200 μM, 30-min pre-incubation, enzyme 1 nM
[3] = biological target: CTX-M-15 (Escherichia coli, UniProt Q9EXV5); conditions: read-out: IC50 β-lactamase CTX-M-15; class (A); nitrocefin 200 μM, 30-min pre-incubation, enzyme 0.4 nM
[4] = biological target: OXA-15 (Pseudomonas aeruginosa, UniProt Q51574); conditions: read-out: IC50 β-lactamase OXA-15; class (D); nitrocefin 200 μM, 30-min pre-incubation, enzyme 0.4 nM
[5] = biological target: OXA-1 (Escherichia coli, UniProt P13661); conditions: read-out: IC50 β-lactamase OXA-1; class (D); nitrocefin 200 μM, 30-min pre-incubation, enzyme 0.2 nM
[6] = system: E. cloacae P99; test: MIC of compound alone, broth microdilution; format: cell-based; conditions: strain P99; compound alone
Procedure, shortened: (§1)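 Visual end point: lowest concentration that blocked growth. Conditions: cation-adjusted Mueller-Hinton broth, 5×10^5 cfu/mL final inoculum of log-phase bacteria, 16-20 h, 35° C, ambient atmosphere.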

[7] = system: E. coli 190317; test: MIC of compound alone, broth microdilution; format: cell-based; conditions: strain 190317; compound alone
Procedure, shortened: as §1

[8] = system: P. aeruginosa CIP107051; test: MIC of compound alone, broth microdilution; format: cell-based; conditions: strain CIP107051; compound alone
Procedure, shortened: as §1

[9] = system: K. pneumoniae BAA-1898; test: MIC of compound alone, broth microdilution; format: cell-based; conditions: strain BAA-1898; compound alone
Procedure, shortened: as §1

[10] = system: K. pneumoniae 6299; test: MIC of compound alone, broth microdilution; format: cell-based; conditions: strain 6299; compound alone
Procedure, shortened: as §1

[11] = biological target: OXA-48 (Klebsiella pneumoniae, UniProt Q6XEC0); conditions: read-out: IC50 β-lactamase OXA-48; class (D); nitrocefin 200 μM, 30-min pre-incubation, enzyme 0.3 nM
[12] = biological target: OXA-11 (Pseudomonas aeruginosa, UniProt Q06778); conditions: read-out: IC50 β-lactamase OXA-11; class (D); nitrocefin 200 μM, 30-min pre-incubation, enzyme 1.2 nM
[13] = biological target: AmpC (P99) (Enterobacter cloacae, UniProt P05364); conditions: read-out: IC50 β-lactamase AmpC (P99); class (C); nitrocefin 200 μM, 30-min pre-incubation, enzyme 0.2 nM
[14] = biological target: AmpC (PAE) (Pseudomonas aeruginosa, UniProt P24735); conditions: read-out: IC50 β-lactamase AmpC (PAE); class (C); nitrocefin 200 μM, 30-min pre-incubation, enzyme 0.4 nM
[15] = biological target: CMY-37 (Citrobacter freundii, UniProt P05193); conditions: read-out: IC50 β-lactamase CMY-37; class (C); nitrocefin 200 μM, 30-min pre-incubation, enzyme 0.2 nM
[16] = biological target: SHV-1 (Klebsiella pneumoniae, UniProt P0AD64); conditions: read-out: IC50 β-lactamase SHV-1; class (A); nitrocefin 200 μM, 30-min pre-incubation, enzyme 0.075 nM
[17] = system: E. cloacae P99; test: MIC of ceftazidime (CAZ) at fixed concentration of compound (synergy), broth microdilution; format: cell-based; conditions: strain P99; MIC of CAZ, compound fixed at 4 μg/mL
Experimental: (§2) Log phase bacterial suspensions were adjusted to a final density of 5×10^5 cfu/mL in cation-adjusted Mueller-Hinton broth (Becton-Dickinson) and added to each well (98 μL). Microplates were incubated for 16-20 h at 35° C. in ambient air. The MIC of the compounds was defined as the lowest concentration of said compounds that prevented bacterial growth as read by visual inspection.

[18] = system: E. coli 190317; test: as above; format: cell-based; conditions: strain 190317; MIC of CAZ, compound fixed at 4 μg/mL
Experimental: as §2

[19] = system: P. aeruginosa CIP107051; test: as above; format: cell-based; conditions: strain CIP107051; MIC of CAZ, compound fixed at 4 μg/mL
Experimental: as §2

[20] = system: K. pneumoniae BAA-1898; test: as above; format: cell-based; conditions: strain BAA-1898; MIC of CAZ, compound fixed at 4 μg/mL
Experimental: as §2

[21] = system: K. pneumoniae 6299; test: as above; format: cell-based; conditions: strain 6299; MIC of CAZ, compound fixed at 4 μg/mL
Experimental: as §2

| SMILES | IC50 [1] | IC50 [2] | IC50 [3] | IC50 [4] | IC50 [5] | MIC compounds of the invention alone [6] | MIC compounds of the invention alone [7] | MIC compounds of the invention alone [8] | MIC compounds of the invention alone [9] | MIC compounds of the invention alone [10] | IC50 [11] | IC50 [12] | IC50 [13] | IC50 [14] | IC50 [15] | IC50 [16] | MIC combination of CAZ and compounds of the invention at 4 μg/mL [17] | MIC combination of CAZ and compounds of the invention at 4 μg/mL [18] | MIC combination of CAZ and compounds of the invention at 4 μg/mL [19] | MIC combination of CAZ and compounds of the invention at 4 μg/mL [20] | other results |
| --- | --- | --- | --- | --- | --- | --- | --- | --- | --- | --- | --- | --- | --- | --- | --- | --- | --- | --- | --- | --- | --- |
| CN(C)C.NC(=O)CCc1nccn1C1=CC2CN(C1)C(=O)N2OS(=O)(=O)O (stereo not drawn) [Example 73, trimethylammonium [3-[2-(3-amino-3-oxo-propyl)imidazol-1-yl]-7-oxo-1,6-diazabicyclo[3.2.1]oct-3-en-6-yl]sulfate] | 1.9 nM | 78 nM | 4.4 nM | 270 nM | 44 nM | >32 µg/mL | >32 µg/mL | >32 µg/mL | >32 µg/mL | >32 µg/mL | 3.7 nM | 87 nM | 92 nM | 250 nM | 86 nM | 9.8 nM | 4 µg/mL | 0.5 µg/mL | 8 µg/mL | 1 µg/mL | MIC combination of CAZ and compounds of the invention at 4 μg/mL [21]: 4 µg/mL |
| NCc1ccn(C2=CC3CN(C2)C(=O)N3OS(=O)(=O)[O-])n1.O=C(O)C(F)(F)F.[Na+] (stereo not drawn) [Example 49, sodium and 2,2,2-trifluoroacetate [3-[3-(ammoniummethyl)pyrazol-1-yl]-7-oxo-1,6-diazabicyclo[3.2.1]oct-3-en-6-yl]sulfate] | 1.2 nM | 180 nM | 2.6 nM | 510 nM | 670 nM | 16 µg/mL | 2 µg/mL | >32 µg/mL | >32 µg/mL | >32 µg/mL | 46 nM | 380 nM | 160 nM | 1300 nM | 150 nM | 8.5 nM | ≤0.25 µg/mL | <0.25 µg/mL | 4 µg/mL | ≤0.25 µg/mL | MIC combination of CAZ and compounds of the invention at 4 μg/mL [21]: ≤0.25 µg/mL |
| O=C([O-])CCc1cn(C2=CC3CN(C2)C(=O)N3OS(=O)(=O)[O-])nn1.[Na+].[Na+] (stereo not drawn) [Example 65, disodium [3-[4-(propanoate)triazol-1-yl]-7-oxo-1,6-diazabicyclo[3.2.1]oct-3-en-6-yl]sulfate] | 0.27 nM | 6 nM | 0.96 nM | 6.7 nM | 53 nM | 32 µg/mL | 32 µg/mL | >32 µg/mL | 32 µg/mL | 32 µg/mL | 0.8 nM | 270 nM | 11 nM | 490 nM | 13 nM | 2.8 nM | 8 µg/mL | 0.5 µg/mL | 8 µg/mL | 64 µg/mL | MIC combination of CAZ and compounds of the invention at 4 μg/mL [21]: 2 µg/mL |
| O=C1N2CC(n3cc(-c4nccs4)nn3)=CC(C2)N1OS(=O)(=O)[O-].[Na+] (stereo not drawn) [Example 55, sodium [7-oxo-3-(4-thiazol-2-yltriazol-1-yl)-1,6-diazabicyclo[3.2.1]oct-3-en-6-yl]sulfate] | 0.14 nM | 0.82 nM | 0.41 nM | 3.4 nM | 26 nM | >32 µg/mL | >32 µg/mL | >32 µg/mL | >32 µg/mL | >32 µg/mL | 0.27 nM | 25 nM | 6.3 nM | 230 nM | 35 nM | 0.61 nM | 8 µg/mL | 0.25 µg/mL | 8 µg/mL | 1 µg/mL | MIC combination of CAZ and compounds of the invention at 4 μg/mL [21]: 4 µg/mL |
| NCc1cnn(C2=CC3CN(C2)C(=O)N3OS(=O)(=O)[O-])c1.O=C(O)C(F)(F)F.[Na+] (stereo not drawn) [Example 15, sodium and 2,2,2-trifluoroacetate [3-(4-methyleneammoniumpyrazol-1-yl)-7-oxo-1,6-diazabicyclo[3.2.1]oct-3-en-6-yl]sulfate] | 0.79 nM | 120 nM | 1.5 nM | 49 nM | 700 nM | 8 µg/mL | 2 µg/mL | 16 µg/mL | >32 µg/mL | >32 µg/mL | 18 nM | 270 nM | 80 nM | 360 nM | 76 nM | 6.5 nM | ≤0.25 µg/mL | <0.25 µg/mL | 2 µg/mL | ≤0.25 µg/mL | MIC combination of CAZ and compounds of the invention at 4 μg/mL [21]: 0.25 µg/mL |
| CC(=O)Nc1ccn(C2=CC3CN(C2)C(=O)N3OS(=O)(=O)O)n1.CCN(CC)CC (stereo not drawn) [Example 33, triethylammonium {[3-(N-acetamido)pyrazol-1-yl]-7-oxo-1,6-diazabicyclo[3.2.1]oct-3-en-6-yl}sulfate] | 0.67 nM | 11 nM | 0.72 nM | 44 nM | 68 nM | 16 µg/mL | 8 µg/mL | >32 µg/mL | 32 µg/mL | 32 µg/mL | 3.1 nM | 8.4 nM | 7.1 nM | 32 nM | 3.2 nM | 1.7 nM | 1 µg/mL | ≤0.25 µg/mL | 8 µg/mL | 16 µg/mL | MIC combination of CAZ and compounds of the invention at 4 μg/mL [21]: 0.25 µg/mL |
